The values that follow come from patent publication US6857485B2, “Shale hydration inhibition agent and method of use” (M-I LLC, priority 2000, dated 2005).

Data set [1] in a line: Viscosity of product from neutralization of Jeffamine D-230 with acids. The data set is classed as physicochemical. The following applies: for Viscosity (centipoises) at pH 9.5: Jeffamine D-230 neutralized with the acid to pH 9.5; for Viscosity (centipoises) at pH 10.5: Jeffamine D-230 neutralized with the acid to pH 10.5. The text has this: Synthesis of the salt: Synthesis of the salts from the free amine compounds is simple and should be well known and within the skill of a person of ordinary skill in the art. In one method the salt is formed in situ within a fully formulated mud by the addition of the acid directly to the mud. Alternatively the amine compound may be neutralized first with acid and then the salt added to the mud. When conducting the neutralization reaction between the amine compound and the acid compound either concentrated or diluted acid may be used. When concentrated acid is utilized, typically a slurry of the salt is formed. When the acid is diluted in water, an aqueous solution containing the amine salt is formed.

Data set [2] can be described thus: Hot-Rolling Dispersion in fresh water, Oxford shale. The following applies: 350 ml freshwater with 10.5 g shale inhibitor, hot rolled 16 hours at 150° F. On the procedure:
(§1) Synthesis of the amine salt was carried out as previously disclosed above. Fresh water was utilized as the base fluid in this example.
(§2) A hot-rolling dispersion test was conducted using samples of Oxford shale, Foss Eikeland shale and actual shale drilling cutting recovered from a well in the field. […] The resulting mixture was hot rolled for 16 hours at 150° F. After rolling, the remaining shale cuttings were screened from the base fluid using a US 20 mesh screen and washed clean of base fluid with 10% potassium chloride aqueous solution. After drying the samples, they were weighed and the percentage of recovered shale was calculated.

Data set [3] can be described thus: Hot-Rolling Dispersion in fresh water, Foss Eikeland shale. The note with it: 350 ml freshwater with 10.5 g shale inhibitor, hot rolled 16 hours at 150° F. On the procedure: as §1, §2
Data set [4] can be described thus: Hot-Rolling Dispersion in fresh water, field cuttings. The note with it: 350 ml freshwater with 10.5 g shale inhibitor, hot rolled 16 hours at 150° F. On the procedure: as §1, §2
Data set [5] is described as follows: Bentonite Hydration Study, 50 ppb bentonite (Example 6). How it is done: In this procedure a pint jar was filled with one barrel equivalent of tap water and test sample, adjusted the pH to at least 9 and treated with a 50 ppb portion M-I GEL (bentonite) at a medium shear rate. After stirring for 30 minutes, the rheologies were measured and then the samples were heat aged overnight at 150° F. After the samples were cooled their rheologies and pHs were recorded. The following data is representative of how the rheologies are affected by the addition of the 50 ppb of bentonite in tap water treated with the experimental inhibitors.

The nature of data set [6]: Bentonite inhibition by daily addition of bentonite (Example 7). The note with it: for 300 rpm Rheologies / 600 rpm Rheologies / 3 rpm Rheologies / 10 Min Gels / Plastic Viscosity / Yield Point: 10 ppb inhibitor; for 300 rpm Rheologies / 600 rpm Rheologies: Heat Aged (150° F.); for 3 rpm Rheologies / 10 Min Gels / Plastic Viscosity / Yield Point: Heat Aged (150°). How it is done: This test procedure uses pint jars that are filled with one barrel equivalent of tap water and 10 ppb of a shale inhibitor. Tap water was used as a control sample. All samples were adjusted to at least a pH of 9 and treated with a 10 ppb portion of M-I GEL (bentonite) at a medium shear rate. After stirring for 30 minutes, the rheologies were measured and then the samples were heat aged overnight at 150° F. After the samples were cooled their rheologies and pHs were recorded. All samples were then adjusted to at least a pH 9 before treating them again with bentonite as previously described. This procedure was carried out for each sample until all were too thick to measure.

Turning to `CC(=O)O` [Acetic acid], the “Viscosity (centipoises) at pH 9.5” value in data set [1] worked out at 1425 cps. In data set [1], the “Viscosity (centipoises) at pH 10.5” value turned out to be 33 cps. Moreover, the “% recovered” value in data set [2] is on record as 88.0%; in data set [3], 72.4%; in data set [4], 47.6%.
For the compound `O=[N+]([O-])O` [Nitric acid], the “Viscosity (centipoises) at pH 9.5” value in data set [1] worked out at 610 cps. For the same compound, the “Viscosity (centipoises) at pH 10.5” value in data set [1] amounted to 120 cps. Moreover, the results for the “% recovered” value in data set [2], in data set [3] and in data set [4] were 87.6%, 69.1% and 45.7%, respectively.
Take `O=P(O)(O)O` [Phosphoric acid]: in data set [1], the “Viscosity (centipoises) at pH 9.5” value is reported as “slurry”. For the same compound, the “Viscosity (centipoises) at pH 10.5” value in data set [1] is recorded as “slurry”. Further, the entries for the “% recovered” value in data set [2], in data set [3] and in data set [4] were 87.8%, 69.1% and 42.6%, respectively.
For Citric acid, in data set [1], the “Viscosity (centipoises) at pH 9.5” value is recorded as 2000 cps and the “Viscosity (centipoises) at pH 10.5” value was found to be 180 cps. In addition, the “% recovered” value in data set [2] is 87.0%. For the same compound, the “% recovered” value in data set [3] is 78.0%.
With `COCCOC(C)COC(C)COC(C)COC(C)COC(C)COC(C)COC(C)COC(C)COCC(C)N` (stereo not shown) [Jeffamine M-600], the “shale hydration inhibition, judgement” value in data set [5] is “performed well as shale hydration inhibitors”. In data set [5] (Heat Aged Rheology (150° F.)), the “Gels 10 sec.” value came out at 1 lbs/100 ft^2, the “Gels 10 min.” value is 1 lbs/100 ft^2, the PV is 16 CPS and the “Rheology 3 RPM” value amounted to 1. Also, in data set [5] (Heat Aged Rheology (150° F.)), the “Rheology 6 RPM” value came out at 1, the “Rheology 100 RPM” value turned out to be 10, the “Rheology 200 RPM” value amounted to 17 and the “Rheology 300 RPM” value stood at 24. Besides, in data set [5] (Heat Aged Rheology (150° F.)), the “Rheology 600 RPM” value is 40, the YP is reported as 8 lbs/100 ft^2 and the pH came to 11.1. Besides, in data set [5] (Initial Rheology), the “Gels 10 sec.” value worked out at 11 lbs/100 ft^2, the “Gels 10 min.” value is given as 25 lbs/100 ft^2, the PV worked out at 19 CPS and the “Rheology 3 RPM” value amounted to 4. Further, in data set [5] (Initial Rheology), the “Rheology 6 RPM” value turned out to be 5, the “Rheology 100 RPM” value was determined as 17, the “Rheology 200 RPM” value turned out to be 25 and the “Rheology 300 RPM” value was 33. In data set [5] (Initial Rheology), the “Rheology 600 RPM” value came out at 52, the YP is on record as 14 lbs/100 ft^2 and the pH amounted to 11.1. Moreover, in data set [6] (Bentonite 30 lb/bbl), the “300 rpm Rheologies” value came to 9, the “600 rpm Rheologies” value worked out at 18, the “3 rpm Rheologies” value was 0 and the “10 Min Gels” value was 0 lbs/100 ft^2. Further, in data set [6] (Bentonite 30 lb/bbl), the “Plastic Viscosity” value came to 9 CPS and the “Yield Point” value is recorded as 1 lbs/100 ft^2. Also, in data set [6] (Bentonite 40 lb/bbl), the “300 rpm Rheologies” value worked out at 18, the “600 rpm Rheologies” value is reported as 35, the “3 rpm Rheologies” value is recorded as 0 and the “10 Min Gels” value is given as 0 lbs/100 ft^2. Moreover, in data set [6] (Bentonite 40 lb/bbl), the “Plastic Viscosity” value is given as 16 CPS and the “Yield Point” value is given as 1 lbs/100 ft^2. Further, in data set [6] (Bentonite 50 lb/bbl), the “300 rpm Rheologies” value is 41, the “600 rpm Rheologies” value is given as 74, the “3 rpm Rheologies” value was found to be 0 and the “10 Min Gels” value came out at 0 lbs/100 ft^2. In data set [6] (Bentonite 50 lb/bbl), the “Plastic Viscosity” value is on record as 33 CPS and the “Yield Point” value was 8 lbs/100 ft^2. In addition, in data set [6] (Bentonite 60 lb/bbl), the “300 rpm Rheologies” value is recorded as 71, the “600 rpm Rheologies” value is on record as 146, the “3 rpm Rheologies” value was 0 and the “10 Min Gels” value was found to be 0 lbs/100 ft^2. For the same compound, in data set [6] (Bentonite 60 lb/bbl), the “Plastic Viscosity” value amounted to 75 CPS and the “Yield Point” value came out at 4 lbs/100 ft^2. In addition, in data set [6] (Bentonite 70 lb/bbl), the “300 rpm Rheologies” value is reported as 121, the “600 rpm Rheologies” value is 259, the “3 rpm Rheologies” value came out at 0 and the “10 Min Gels” value amounted to 3 lbs/100 ft^2. Besides, in data set [6] (Bentonite 70 lb/bbl), the “Plastic Viscosity” value was 138 CPS and the “Yield Point” value is on record as 17 lbs/100 ft^2. The “shale hydration inhibition, judgement” value in data set [6] (daily addition of bentonite) is recorded as “performs as a shale hydration inhibitor”.
